In patent US20070161592A1, “Method of treating fear” (priority 2005, published 2007):

Key:
[1] = test system: NMDAR-mediated currents in the ACC; experiment: NMDAR-mediated EPSCs in the ACC; type: cell-based, mouse
Protocol: Coronal brain slices ([…]) from 6-8-week-old C57BL/6 mice, containing ACC or hippocampus, were prepared using standard methods (Wei et al., 2001). Slices were transferred to a submerged recovery chamber containing oxygenated (95% O2 and 5% CO2) artificial cerebrospinal fluid (ACSF) (in mM: 124 NaCl, 4.4 KCl, 2 CaCl2, 1 MgSO4, 25 NaHCO3, 1 NaH2PO4, 10 glucose) at room temperature for at least 1 h.
(§1) Experiments were performed in a recording chamber on the stage of an Axioskop 2FS microscope with infrared DIC optics for visualizing whole-cell patch clamp recordings. EPSCs were recorded from layer II-III neurons using an Axon 200B amplifier (Axon Instruments, CA) and stimulations were delivered using a bipolar tungsten stimulating electrode placed in layer V of the ACC. In hippocampal slices, EPSCs were evoked by stimulating the Schaffer collateral-commissural pathway. EPSCs were induced by repetitive stimulations at 0.02 Hz and neurons were voltage clamped at −70 mV. The recording pipettes (3-5 MΩ) were filled with solution containing (mM) 145 K-gluconate, 5 NaCl, 1 MgCl2, 0.2 EGTA, 10 HEPES, 2 Mg-ATP, and 0.1 Na3-GTP (adjusted to pH 7.2 with KOH). After obtaining stable EPSCs for 10 min, three kinds of LTP induction paradigms were used within 12 min after establishing the whole-cell configuration to prevent wash out effect on LTP induction (Tsvetkov et al., 2002). The first protocol involved paired presynaptic 80 pulses at 2 Hz with postsynaptic depolarization at +30 mV (referred to as pairing training). The second involved paired 3 presynaptic stimuli that caused 3 EPSPs (10 ms ahead) with 3 postsynaptic APs at 30 Hz, paired 15 times every 5 s (named as EPSPs-APs protocol). The third involved theta-burst stimulation (5 trains of burst with 4 pulses at 100 Hz, at 200 ms interval; repeated 4 times at intervals of 10 s; named as TBS). The NMDAR-mediated component of EPSCs was pharmacologically isolated in Mg^2+-free ACSF containing: CNQX (20 μM), glycine (1 μM) and picrotoxin (100 μM). The patch electrodes contained (in mM) 102 cesium gluconate, 5 TEA-chloride, 3.7 NaCl, 11 BAPTA, 0.2 EGTA, 20 HEPES, 2 MgATP, 0.3 NaGTP, and 5 QX-314 chloride (adjusted to pH 7.2 with CsOH). Neurons were voltage clamped at −60 mV and NMDARs-mediated EPSCs were evoked at 0.05 Hz. Picrotoxin (100 μM) was always present to block GABAA receptor-mediated inhibitory synaptic currents. The access resistance was 15-30 MΩ and was monitored throughout the experiment. Data were discarded if access resistance changed by more than 15% during an experiment. Results are expressed as means±SEM. Statistical comparisons were performed using the Student t-test.
One possible mechanism is that NR2B-containing receptors may contribute more to total NMDA currents in ACC synapses than in hippocampal synapses. […] Application of 0.1 μM or 0.4 μM NVP-AAM077 depressed total NMDAR-mediated currents by 59.0±4.3% (n=5) and 63.2±1.7% (n=6) in the ACC respectively (FIG. 5). On the other hand, application of 0.3 μM or 3 μM Ro25-6981 attenuated total NMDAR-mediated currents by 18.0±1.9% (n=5) and 18.1±3.4% (n=7) in the ACC respectively, showing that 0.3 μM Ro25-6981 was sufficient to block the NR2B-mediated currents (FIG. 5). This experiment was repeated in hippocampal CA1 neurons. […] However, unlike in the ACC, application of 0.3 μM Ro25-6981 alone potentiated, rather than blocked, total NMDAR-mediated currents by 51.3±16.4% in the hippocampus (FIG. 5).
The relative percentages of NR2A- and NR2B-mediated currents were determined by applying specific antagonists, NVP-AAM077 (0.4 μM) and Ro25-6981 (0.3 μM). The concentrations used here were based on the results from FIG. 5 and a recent study performed in the hippocampus (Liu et al., 2004). Application of NVP-AAMO77 depressed total NMDAR-mediated currents by 63.2±1.7% and the addition of Ro25-6981 to the same neuron further reduced currents by 13.7±1.4% (n=6) in the ACC (FIG. 6). […]

[2] = test system: pyramidal neurons in layer II/III of ACC slices; experiment: LTP induced by pairing training, whole-cell patch-clamp recordings in ACC slices; type: cell-based, mouse; conditions: for effect on LTP induced by pairing training: FIG. 3
Protocol: as §1, with “The recording pipettes (3-5 MΩ) were filled with solution containing (mM) 145 K-gluconate, 5 NaCl, 1 MgCl2, 0.2 EGTA, 10 HEPES, 2 Mg-ATP, and 0.1 Na3-GTP (adjusted to pH 7.2 with KOH). After obtaining stable EPSCs for 10 min, three kinds of LTP induction paradigms were used within 12 min after establishing the whole-cell configuration to prevent wash out effect on LTP induction (Tsvetkov et al., 2002).” left out, “The patch electrodes contained (in mM) 102 cesium gluconate, 5 TEA-chloride, 3.7 NaCl, 11 BAPTA, 0.2 EGTA, 20 HEPES, 2 MgATP, 0.3 NaGTP, and 5 QX-314 chloride (adjusted to pH 7.2 with CsOH).” left out, “Data were discarded if access resistance changed by more than 15% during an experiment.” left out
Whole-cell patch-clamp recordings were conducted in visually identified pyramidal neurons in layer II/III of ACC slices. Pyramidal neurons were identified by injecting depolarized currents into neurons to induce action potentials. […] Pyramidal neurons were also identified based on the pyramid shape of their somata by putting Lucifer yellow into the intracellular solution (FIG. 1A).

Question: What does the source list for C[C@@H](CN1CCC(Cc2ccccc2)CC1)[C@@H](O)c1ccc(O)cc1 [Ro25-6981]?
Answer: further reduction of total NMDAR-mediated currents ([1]; 0.3 μM Ro25-6981 added to the same neuron after 0.4 μM NVP-AAM077): 13.7±1.4%; depression of total NMDAR-mediated currents ([1]; 0.3 μM, applied alone or first): 18.0±1.9%; depression of total NMDAR-mediated currents ([1]; 3 μM): 18.1±3.4%; effect on total NMDAR-mediated currents ([1]; bath application of different doses, FIG. 5): depressed; synaptic responses after pairing training (LTP), % of baseline ([2]; 0.3 μM): 132.8±7.4%; effect on LTP induced by pairing training ([2]; 0.3 μM): partially depressed; synaptic responses after pairing training (LTP), % of baseline ([2]; 3 μM): 126.8±7.5%; effect on LTP induced by pairing training ([2]; 3 μM): partially depressed
